Counter-ions that a name gives are not always drawn. Like-named read-outs stand apart in the source and are kept apart here.
Columns and labels:
[1] = biological target: T1, α2A receptor (Homo sapiens, UniProt P08913); assay: Competition binding, [3H]rauwolscine, human α2A receptor
T1 construct: host or cells: LM(tk-) cells, line L-α2A
T1 sequence (P08913 1-465): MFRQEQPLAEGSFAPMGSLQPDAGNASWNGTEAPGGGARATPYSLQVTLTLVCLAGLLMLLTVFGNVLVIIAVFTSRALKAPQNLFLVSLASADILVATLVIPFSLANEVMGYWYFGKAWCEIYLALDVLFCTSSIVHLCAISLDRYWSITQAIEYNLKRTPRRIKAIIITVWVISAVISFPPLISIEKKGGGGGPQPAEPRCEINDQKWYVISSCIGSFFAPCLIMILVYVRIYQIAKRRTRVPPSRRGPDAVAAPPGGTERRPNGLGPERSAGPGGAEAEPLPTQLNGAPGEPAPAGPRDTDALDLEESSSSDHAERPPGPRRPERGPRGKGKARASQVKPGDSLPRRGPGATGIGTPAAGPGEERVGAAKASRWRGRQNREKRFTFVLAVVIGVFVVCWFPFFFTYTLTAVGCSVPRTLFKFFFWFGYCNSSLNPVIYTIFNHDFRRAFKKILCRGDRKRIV
Summary of the method: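 Using 25 mM glycylglycine buffer at pH 7.6 (room temperature), membranes from LM(tk−) cells carrying α2A, α2B or α2C were competed against 0.5 nM [3H]rauwolscine to equilibrium. Separation was by GF/B filtration; phentolamine (10 μM) set nonspecific binding.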

[2] = biological target: T2, α1B Human Adrenergic Receptor (Homo sapiens, UniProt P35368); assay: Radioligand binding, [3H]prazosin, cloned human α1B adrenergic receptor
T2 construct: The entire coding region of α1B (1563 bp); expressed in transfected cells
T2 sequence (P35368 1-520): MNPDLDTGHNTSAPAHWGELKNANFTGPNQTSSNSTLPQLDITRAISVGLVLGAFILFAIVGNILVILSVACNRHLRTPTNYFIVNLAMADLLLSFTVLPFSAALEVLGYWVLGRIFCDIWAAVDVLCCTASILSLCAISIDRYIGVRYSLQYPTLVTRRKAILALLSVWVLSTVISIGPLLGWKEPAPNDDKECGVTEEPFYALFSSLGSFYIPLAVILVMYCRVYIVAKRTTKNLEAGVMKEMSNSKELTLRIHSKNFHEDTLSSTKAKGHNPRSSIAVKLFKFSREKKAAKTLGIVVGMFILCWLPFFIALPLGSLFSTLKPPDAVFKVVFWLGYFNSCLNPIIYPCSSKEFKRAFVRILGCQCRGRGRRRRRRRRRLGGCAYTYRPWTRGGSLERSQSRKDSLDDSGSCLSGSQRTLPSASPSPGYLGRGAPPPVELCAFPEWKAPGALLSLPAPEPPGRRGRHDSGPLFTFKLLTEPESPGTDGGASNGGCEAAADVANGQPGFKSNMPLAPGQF
Summary of the method: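 Membranes from stably transfected LM(tk−) cells, resuspended in 50 mM Tris-HCl, 1 mM MgCl2, 0.1% ascorbic acid, pH 7.5, were incubated with 0.5 nM [3H]prazosin for 20 min at 37° C. Nonspecific binding defined with 10 μM phentolamine; bound ligand separated by GF/B filtration.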

[3] = biological target: T3, α1A Human Adrenergic Receptor (Homo sapiens, UniProt P25100); assay: Radioligand binding, [3H]prazosin, cloned human α1A adrenergic receptor; conditions: pKi alpha-1 1a
T3 construct: The entire coding region of α1A (1719 bp); expressed in transfected cells
T3 sequence (P25100 1-572): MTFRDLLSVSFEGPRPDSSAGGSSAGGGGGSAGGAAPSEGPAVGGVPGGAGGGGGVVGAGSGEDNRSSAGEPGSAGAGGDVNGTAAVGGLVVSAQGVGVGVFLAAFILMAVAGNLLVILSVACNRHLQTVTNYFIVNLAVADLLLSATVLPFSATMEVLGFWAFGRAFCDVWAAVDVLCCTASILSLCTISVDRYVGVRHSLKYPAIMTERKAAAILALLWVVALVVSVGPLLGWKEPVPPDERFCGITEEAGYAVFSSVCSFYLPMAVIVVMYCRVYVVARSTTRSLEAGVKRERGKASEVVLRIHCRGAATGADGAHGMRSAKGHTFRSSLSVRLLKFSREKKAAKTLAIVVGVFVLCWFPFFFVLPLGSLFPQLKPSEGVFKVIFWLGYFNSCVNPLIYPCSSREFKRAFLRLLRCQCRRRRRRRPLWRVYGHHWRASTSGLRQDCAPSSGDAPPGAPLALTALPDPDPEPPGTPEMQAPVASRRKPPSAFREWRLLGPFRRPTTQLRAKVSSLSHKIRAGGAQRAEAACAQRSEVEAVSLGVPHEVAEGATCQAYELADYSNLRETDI
Summary of the method: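 Membranes from LM(tk−) cells transfected with cloned human α1A receptor, prepared in 50 mM Tris-HCl, 1 mM MgCl2, 0.1% ascorbic acid pH 7.5, were incubated with 0.5 nM [3H]prazosin at 37° C for 20 min. Nonspecific binding was defined with 10 μM phentolamine; bound ligand was separated by GF/B filtration.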

[4] = [3H]rauwolscine, human α2A receptor, LM(tk−) cells, read-out: pKi alpha-2 2a (converted)
[5] = pKi alpha-1 1b, cloned human α1B receptor, LM(tk−) cell membranes
[6] = [3H]prazosin, cloned human α1A receptor, LM(tk−) cell membranes
[7] = cloned human receptor in LM(tk-) cell membranes, SEM and n in lines below, read-out: pKi alpha-1 1b (converted)
[8] = [3H]rauwolscine, LM(tk-) cell line L-α2A, SEM and n in lines below, read-out: pKi alpha-2 2a (converted)
[9] = pKi alpha-1 1b, cloned human receptor in LM(tk-) cell membranes, SEM and n in lines below
[10] = [3H]prazosin, cloned human receptor in LM(tk-) cell membranes, SEM and n in lines below

CCC1=C(C(N)=O)C(c2ccc([N+](=O)[O-])cc2)C(C(=O)NCCCN2CCC(C#N)(c3ccccc3)CC2)=C(CC)N1 (racemic) [(±)-102, 5-Carboxamido-3-{N-[(4-cyano-4-phenylpiperidin-1-ly)propyl]carboxamido-2,6-diethyl-1,4-dihydro-4-(4-nitrophenyl)pyridine hydrochloride hydrate]
Ki [1, 4]: 2880 nM
Ki [2, 5]: 1620 nM
Ki [3, 6]: 3470 nM

CCC1=C(C(N)=O)C(c2ccc([N+](=O)[O-])cc2)C(C(=O)NCCCN2CCC(C#N)(c3ccccc3)CC2)=C(CC)N1 (single isomer, unassigned; (+)) [(+)-102]
Ki [1, 4]: 3890 nM
Ki [2, 5]: 1230 nM
Ki [3, 6]: 2880 nM

CCC1=C(C(N)=O)C(c2ccc([N+](=O)[O-])cc2)C(C(=O)NCCCN2CCC(C#N)(c3ccccc3)CC2)=C(CC)N1 (single isomer, unassigned; (-)) [(−)-102]
Ki [1, 4]: 1910 nM
Ki [2, 5]: 3160 nM
Ki [3, 6]: 6760 nM

COC(=O)C1=C(C)NC(C)=C(C(=O)NCCCN2CCC(c3ccccc3)(c3ccccc3)CC2)C1c1ccc(C(F)(F)F)cc1 (stereo not drawn) [Example 1]
Ki [1]: 2400 nM
Ki [2, 7]: 407 nM
Ki [3]: 2570 nM

CCC1=C(C(=O)NCCCN2CCC(c3ccccc3)(c3ccccc3)CC2)C(c2ccc([N+](=O)[O-])cc2)C(C(=O)OCc2ccccc2)=C(C)N1 (stereo not drawn) [Example 4, 5-Benzyloxycarbonyl-2-ethyl-1,4-dihydro-6-methyl-4-(4-nitrophenyl)-3-(N-(3-(4,4-diphenylpiperidin-1-yl)propyl)carboxamido) pyridine, Hydrochloride Salt, Hydrate]
Ki [1, 8]: 550 nM
Ki [2, 9]: 129 nM
Ki [3, 10]: 195 nM

COC(=O)C1=C(C)NC(C)=C(C(=O)NCCCN2CCC(c3ccccc3)(c3ccccc3)CC2)C1c1ccncc1 (stereo not drawn) [Example 5, 1,4-Dihydro-5-methoxycarbonyl-2,6-dimethyl-3-(N-(3-(4,4-diphenylpiperidin-1-yl)propyl)carboxamido)-4-(4-pyridyl)pyridine]
Ki [1]: 2240 nM
Ki [2, 7]: 832 nM
Ki [3]: 1820 nM

COC(=O)C1=C(C)NC(C)=C(C(=O)NCCCN2CCC(c3ccccc3)(c3ccccc3)CC2)C1C1CCCCC1 (stereo not drawn) [Example 6]
Ki [1]: 832 nM
Ki [2, 7]: 204 nM
Ki [3]: 1120 nM

COC(=O)C1=C(C)NC(C)=C(C(=O)NCCCN2CCC(c3ccccc3)(c3ccccc3)CC2)C1c1ccc(-c2ccccc2)cc1 (stereo not drawn) [Example 7]
Ki [1]: 3800 nM
Ki [2, 7]: 288 nM
Ki [3]: 1170 nM

COC(=O)C1=C(C)NC(C)=C(C(=O)NCCCN2CCC(c3ccccc3)(c3ccccc3)CC2)C1Cc1ccccc1 (stereo not drawn) [Example 8, 4-Benzyl-1,4-dihydro-3-methoxycarbonyl-2,6-dimethyl-5-(N-(3-(4,4-diphenylpiperidin-1-yl)propyl)carboxamido)pyridine]
Ki [1, 8]: 832 nM
Ki [2, 9]: 186 nM
Ki [3, 10]: 380 nM

COC(=O)C1=C(C)NC(C)=C(C(=O)NCCCN2CCC(c3ccccc3)(c3ccccc3)CC2)C1c1cc[n+]([O-])cc1 (stereo not drawn) [Example 9, 1,4-Dihydro-3-methoxycarbonyl-2,6-Dimethyl-4-(1-oxido-4-pyridyl)-5-(N-(3-(4,4-diphenylpiperidin-1-yl)propyl)carboxamido)pyridine]
Ki [1, 8]: 2190 nM
Ki [2, 9]: 339 nM
Ki [3, 10]: 1700 nM

COC(=O)C1=C(C)NC(C)=C(C(=O)NCCCN2CCC(c3ccccc3)(c3ccccc3)CC2)C1c1ccc(Cl)cc1 (stereo not drawn) [Example 10, 4-(4-Chlorophenyl)-1,4-dihydro-5-methoxycarbonyl-2,6-Dimethyl-5-(N-(3-(4,4-diphenylpiperidin-1-yl)propyl)carboxamido)pyridine]
Ki [1]: 2340 nM
Ki [2, 7]: 123 nM
Ki [3]: 447 nM

COC(=O)C1=C(C)NC(C)=C(C(=O)NCCCN2CCC(c3ccccc3)(c3ccccc3)CC2)C1c1ccc2c(c1)OCO2 (stereo not drawn) [Example 11, 1,4-Dihydro-3-methoxycarbonyl-2,6-dimethyl-4-(3,4-methylenedioxyphenyl)-5-(N-(3-(4,4-diphenylpiperidin-1-yl)propyl)carboxamido)pyridine]
Ki [1]: 1120 nM
Ki [2, 7]: 229 nM
Ki [3]: 302 nM

COC(=O)C1=C(C)NC(C)=C(C(=O)NCCCN2CCC(c3ccccc3)(c3ccccc3)CC2)C1c1ccc(C#N)cc1 (stereo not drawn) [Example 12, 4-(4-Cyanophenyl)-1,4-dihydro-3-methoxycarbonyl-2,6-dimethyl-5-(N-(3-(4,4-diphenylpiperidin-1-yl)propyl)carboxamido)pyridine]
Ki [1]: 776 nM
Ki [2, 7]: 151 nM
Ki [3]: 380 nM

COC(=O)C1=C(C)NC(C)=C(C(=O)NCCCN2CCC(c3ccccc3)(c3ccccc3)CC2)C1c1ccc(I)cc1 (stereo not drawn) [Example 13, 1,4-Dihydro-4-(4-iodophenyl)-3-methoxycarbonyl-2,6-dimethyl-5-(N-(3-(4,4-diphenylpiperidin-1-yl)propyl)carboxamido)pyridine]
Ki [1]: 1260 nM
Ki [2, 7]: 166 nM
Ki [3]: 389 nM

COC(=O)C1=C(C)NC(C)=C(C(=O)NCCCN2CCC(c3ccccc3)(c3ccccc3)CC2)C1c1cccnc1 (stereo not drawn) [Example 14, 1,4-Dihydro-3-methoxycarbonyl-2.6-dimethyl-5-(N-(3-(4,4-diphenylpiperidin-1-yl)propyl)carboxamido)-4-(3-pyridyl)pyridine]
Ki [1, 8]: 2880 nM
Ki [2, 9]: 2630 nM
Ki [3, 10]: 4070 nM

COC(=O)C1=C(C)NC(C)=C(C(=O)NCCCN2CCC(c3ccccc3)(c3ccccc3)CC2)C1c1ccc(Br)cc1 (stereo not drawn) [Example 15, 4-(4-Bromophenyl)-1,4-dihydro-3-methoxycarbonyl-2,6-dimethyl-5-(N-(3-(4,4-diphenylpiperidin-1-yl)propyl)carboxamido)pyridine]
Ki [1]: 2450 nM
Ki [2, 7]: 166 nM
Ki [3]: 417 nM

COC(=O)C1=C(C)NC(C)=C(C(=O)NCCCN2CCC(c3ccccc3)(c3ccccc3)CC2)C1c1ccc(Cl)c([N+](=O)[O-])c1 (stereo not drawn) [Example 16, 4-(4-Chloro-3-nitrophenyl)-1,4-dihydro-3-methoxycarbonyl-2,6-dimethyl-5-(N-(3-(4,4-diphenylpiperidin-1-yl)propyl)carboxamido)pyridine]
Ki [1]: 1120 nM
Ki [2, 7]: 174 nM
Ki [3]: 427 nM

COC(=O)C1=C(C)NC(C)=C(C(=O)NCCCN2CCC(c3ccccc3)(c3ccccc3)CC2)C1c1ccc(C(C)C)cc1 (stereo not drawn) [Example 18, 1,4-Dihydro-4-(4-isopropylphenyl)-3-methoxycarbonyl-2,6-dimethyl-5-(N-(3-(4,4-diphenylpiperidin-1-yl)propyl)carboxamido)pyridine]
Ki [1]: 2140 nM
Ki [2, 7]: 174 nM
Ki [3]: 891 nM
